Measurements reported in patent US12428403B2, “N-(heterocyclyl and heterocyclylalkyl)-3-benzylpyridin-2-amine derivatives as SSTR4 agonists” (Takeda Pharmaceutical Company Limited, priority 2020, dated 2025).

Tests used:
SSTR4 [1] = target: T1, SSTR4 (Homo sapiens, UniProt P31391); test: SSTR4 I-125 somatostatin competition binding assay (CHO-K1 membranes); design: host or cells: CHO-K1; settings: competition with I-125 labeled somatostatin, membranes from CHO-K1 overexpressing SSTR4; read-out: SSTR4 Binding pIC50 (converted)
Text: SSTR4I-125 Somatostatin Competition Binding Assay
Membranes from CHO-K1 cells overexpressing SSTR4 are purchased from Perkin Elmer (catalog number ES-524-M400UA). […] The scintillator sheets are melted to filters using a heat block.

SSTR1 = SSTR1 (Homo sapiens, UniProt P30872); test: biochemical;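 also: competitive binding to membranes of CHO-K1 cells overexpressing SSTR1, incubated 60 min at room temperature, radioactivity read by scintillation counting after filtration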
Description: SSTR1 I-125 Somatostatin Competition Binding Assay for Selectivity Versus SSTR1
Membranes from CHO-K1 cells overexpressing SSTR1 are purchased from Perkin Elmer (catalog number ES-520-M400UA). Test compounds are suspended in DMSO and then diluted in assay buffer (25 mM HEPES pH 7.4, 10 mM MgCl2, 1 mM CaCl2, 0.5% BSA) plus 0.4 nM I-125 labeled somatostatin (Perkin Elmer catalog number NEX389). […] Then 10 μg of SSTR1 membranes in 50 μL assay buffer are added per well. The plate is incubated for 60 minutes at room temperature. […] The contents of the assay plate are transferred to filters with a TomTech harvester and washed 5 times with 20 mM HEPES, 100 mM NaCl. […] The scintillator sheets are melted to the filters using a heat block. The filters are then read in a MicroBeta scintillation counter. Binding Ki curves are generated using Activity Base for Screening Data Management and the results are reported as pIC50.

SSTR4 [2] = target: T1, SSTR4; test: cell-based
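For EC50 in this document: CHO-K1 cells overexpressing SSTR4, reduction of forskolin-driven cAMP after 30 min compound exposure at room temperature, cAMP read by HTRF LANCE Ultra kit.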

T1 sequence (P31391 whole entry): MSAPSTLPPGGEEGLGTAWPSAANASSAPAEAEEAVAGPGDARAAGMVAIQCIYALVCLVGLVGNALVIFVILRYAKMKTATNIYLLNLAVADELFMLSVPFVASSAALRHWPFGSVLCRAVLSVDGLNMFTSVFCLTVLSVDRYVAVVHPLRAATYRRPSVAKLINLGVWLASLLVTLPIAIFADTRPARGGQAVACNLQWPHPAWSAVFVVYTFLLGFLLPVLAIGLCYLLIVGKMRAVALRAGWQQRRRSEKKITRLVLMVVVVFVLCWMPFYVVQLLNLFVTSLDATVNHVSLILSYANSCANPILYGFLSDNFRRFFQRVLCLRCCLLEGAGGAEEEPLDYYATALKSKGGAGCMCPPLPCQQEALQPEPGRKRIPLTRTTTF
Sequence of SSTR1 (P30872 whole entry): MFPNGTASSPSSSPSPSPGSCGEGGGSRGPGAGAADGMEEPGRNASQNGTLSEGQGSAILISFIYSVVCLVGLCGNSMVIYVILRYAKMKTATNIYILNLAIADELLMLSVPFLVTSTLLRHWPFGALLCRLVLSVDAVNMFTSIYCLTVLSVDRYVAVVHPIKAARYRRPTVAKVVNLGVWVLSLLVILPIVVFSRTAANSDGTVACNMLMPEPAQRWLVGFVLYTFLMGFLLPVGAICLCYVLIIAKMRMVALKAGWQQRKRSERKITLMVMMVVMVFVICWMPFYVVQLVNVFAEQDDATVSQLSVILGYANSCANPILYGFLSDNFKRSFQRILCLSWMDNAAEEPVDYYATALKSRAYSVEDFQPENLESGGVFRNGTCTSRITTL

| SMILES | IC50 (SSTR4 [1]) [nM] | IC50 (SSTR1) [nM] | EC50 (SSTR4 [2]) [nM] |
| --- | --- | --- | --- |
| Cc1nnc([C@H](C)c2ccccc2)c(NCCN2CCC2)n1 (single isomer, unassigned) [Example 144] | 603 | 18600 | 38 |
| CC(c1ccc(F)cc1)c1ncc(C(=O)N(C)C)nc1NCCN1CCCC1 (stereo not drawn) [Example 28] | 389 | 1660 | 4.68 |
| Cc1cccc(Cc2ncc(C(C)C)nc2NCCN2CCC2)c1 [Example 87, N-(2-(azetidin-1-yl)ethyl)-6-isopropyl-3-(3-methylbenzyl)pyrazin-2-amine] | 10.5 | 3720 | 5.01 |
| Cc1nc(NCCN2CCCC2)c(C(C)c2ccc(F)cc2)nc1C(=O)NC1CC1 (stereo not drawn) [Example 62, N-cyclopropyl-6-(1-(4-fluorophenyl)ethyl)-3-methyl-5-((2-(pyrrolidin-1-yl)ethyl)amino)pyrazine-2-carboxamide] | 14.5 | 1410 | 4.27 |
| CO[C@@H]1CCN(C(=O)c2cnc(NCCN3CCCC3)c([C@H](C)c3ccc(F)cc3)n2)C1 [Example 11, (6-((R)-1-(4-fluorophenyl)ethyl)-5-((2-(pyrrolidin-1-yl)ethyl)amino)pyrazin-2-yl)((R)-3-methoxypyrrolidin-1-yl)methanone] | 214 | 3470 | 28.8 |
| C[C@H](c1ccc(F)cc1)c1nc(C(=O)N[C@@H]2CCOC2)cnc1NCCN1CCCC1 [Example 13, 6-((R)-1-(4-fluorophenyl)ethyl)-5-((2-(pyrrolidin-1-yl)ethyl)amino)-N-((R)-tetrahydrofuran-3-yl)pyrazine-2-carboxamide] | 162 | 4070 | 11.7 |
| Cc1nnc([C@H](C)c2ccc(F)cc2)c(NCCN2CCC2)n1 (single isomer, unassigned) [Example 133] | 209 | 30200 | 42.7 |
| Cc1nc(NCCN2CCCC2)c(C(C)c2ccc(F)cc2)nc1C(=O)N[C@@H]1CCOC1 (stereo partly drawn) [Example 61, 6-(1-(4-fluorophenyl)ethyl)-3-methyl-5-((2-(pyrrolidin-1-yl)ethyl)amino)-N-((R)-tetrahydrofuran-3-yl)pyrazine-2-carboxamide] | 20.4 | 1510 | 15.8 |
| Cc1nc(N[C@@H]2CCN(C)C[C@H]2C)c(Cc2ccc(F)cc2)nc1C(N)=O (racemic) [Example 45, 5-((trans-1,3-dimethylpiperidin-4-yl)amino)-6-(4-fluorobenzyl)-3-methylpyrazine-2-carboxamide] | 129 | 18200 | 38 |
| CC(c1ccc(F)cc1)c1nc(-c2nccn2C)cnc1NCCN1CCCC1 (stereo not drawn) [Example 124, 3-(1-(4-fluorophenyl)ethyl)-5-(1-methyl-1H-imidazol-2-yl)-N-(2-(pyrrolidin-1-yl)ethyl)pyrazin-2-amine] | 245 | 3470 | 36.3 |
| Cc1nc(NCCN2CCCC2)c(C(C)c2ccc(F)cc2)nc1C(=O)N1CC[C@@H](F)C1 (stereo partly drawn) [Example 74, (6-(1-(4-fluorophenyl)ethyl)-3-methyl-5-((2-(pyrrolidin-1-yl)ethyl)amino)pyrazin-2-yl)((R)-3-fluoropyrrolidin-1-yl)methanone] | 63.1 | 4370 | 3.24 |
| CO[C@@H]1CCN(C(=O)c2nc(C(C)c3ccc(F)cc3)c(NCCN3CCCC3)nc2C)C1 (stereo partly drawn) [Example 72, (6-(1-(4-fluorophenyl)ethyl)-3-methyl-5-((2-(pyrrolidin-1-yl)ethyl)amino)pyrazin-2-yl)((R)-3-methoxypyrrolidin-1-yl)methanone] | 64.6 | 4790 | 3.39 |
| Cc1nnc([C@H](C)c2ccc(F)cc2)c(N[C@H]2CCN(C)C2)n1 (single isomer, unassigned) [Example 146] | 91.2 | 10000 | 27.5 |
| CNC(=O)c1nc(Cc2ccc(F)cc2)c(N[C@@H]2CCN(C)C[C@H]2C)nc1C (racemic) [Example 46, 5-((trans-1,3-dimethylpiperidin-4-yl)amino)-6-(4-fluorobenzyl)-N,3-dimethylpyrazine-2-carboxamide] | 490 | 14500 | 72.4 |
| CC(c1ccc(F)cc1)c1nc(-c2nccs2)cnc1NCCN1CCCC1 (stereo not drawn) [Example 125, 3-(1-(4-fluorophenyl)ethyl)-N-(2-(pyrrolidin-1-yl)ethyl)-5-(thiazol-2-yl)pyrazin-2-amine] | 38 | 1230 | 42.7 |
| C[C@H](c1ccc(F)cc1)c1nc(C(=O)N2CCCC2)cnc1NCCN1CCCC1 [Example 8, (R)-(6-(1-(4-fluorophenyl)ethyl)-5-((2-(pyrrolidin-1-yl)ethyl)amino)pyrazin-2-yl)(pyrrolidin-1-yl)methanone] | 141 | 1950 | 31.6 |

| SMILES | IC50 (SSTR4 [1]) [nM] | IC50 (SSTR1) [nM] | EC50 (SSTR4 [2]) [nM] |
| --- | --- | --- | --- |
| CC(c1ccc(F)cc1)c1nccnc1NCCN1CCCC1 (stereo not drawn) [Example 119, 3-(1-(4-fluorophenyl)ethyl)-N-(2-(pyrrolidin-1-yl)ethyl)pyrazin-2-amine] | 151 | 12000 | 8.71 |
| Cc1nc(NCCN2CCCC2)c(C(C)c2ccc(F)cc2)nc1C(=O)N[C@H]1CCOC1 (stereo partly drawn) [Example 69, 6-(1-(4-fluorophenyl)ethyl)-3-methyl-5-((2-(pyrrolidin-1-yl)ethyl)amino)-N-((S)-tetrahydrofuran-3-yl)pyrazine-2-carboxamide] | 135 | 2400 | 8.71 |
| Cc1nc(NCCN2CCCC2)c(C(C)c2ccc(F)cc2)nc1C(=O)N(C)C1CC1 (stereo not drawn) [Example 65, N-cyclopropyl-6-(1-(4-fluorophenyl)ethyl)-N,3-dimethyl-5-((2-(pyrrolidin-1-yl)ethyl)amino)pyrazine-2-carboxamide] | 17 | 3390 | 1.62 |
| CNC(=O)c1cnc(NCCN2CCCC2)c([C@H](C)c2ccc(F)cc2)n1 (single isomer, unassigned) [Example 24] | 45.7 | 5130 | 18.6 |
| Cc1cccc(Cc2nc(C(N)=O)c(C)nc2NCCN2CCCC2)c1 [Example 41, 3-methyl-6-(3-methylbenzyl)-5-((2-(pyrrolidin-1-yl)ethyl)amino)pyrazine-2-carboxamide] | 23.4 | 13200 | 2.09 |
| CNC(=O)c1nc(Cc2ccc(F)cc2)c(NCCN2CCCC2)nc1C [Example 44, 6-(4-fluorobenzyl)-N,3-dimethyl-5-((2-(pyrrolidin-1-yl)ethyl)amino)pyrazine-2-carboxamide] | 67.6 | 11700 | 4.79 |
| Cc1nc(NCCN2CCCC2)c(C(C)c2ccc(F)cc2)nc1C(=O)NC1CC(F)(F)C1 (stereo not drawn) [Example 73, N-(3,3-difluorocyclobutyl)-6-(1-(4-fluorophenyl)ethyl)-3-methyl-5-((2-(pyrrolidin-1-yl)ethyl)amino)pyrazine-2-carboxamide] | 47.9 | 1100 | 9.77 |
| CC(c1ccc(F)cc1)c1nc(-c2ncco2)cnc1NCCN1CCCC1 (stereo not drawn) [Example 123, 3-(1-(4-fluorophenyl)ethyl)-5-(oxazol-2-yl)-N-(2-(pyrrolidin-1-yl)ethyl)pyrazin-2-amine] | 123 | 3310 | 20.9 |
| CNC(=O)c1cnc(NCCN2CCCC2)c([C@@H](C)c2ccc(F)cc2)n1 (single isomer, unassigned) [Example 23] | 63.1 | 13200 | 25.1 |
| C[C@H](c1ccc(F)cc1)c1nc(C(=O)N(C)C2CC2)cnc1NCCN1CCCC1 [Example 17, (R)-N-cyclopropyl-6-(1-(4-fluorophenyl)ethyl)-N-methyl-5-((2-(pyrrolidin-1-yl)ethyl)amino)pyrazine-2-carboxamide] | 162 | 7940 | 11.7 |
| CNC(=O)c1nc(Cc2ccc(F)cc2)c(NCCN2CCCC2)nc1C [Example 43, 6-(4-fluorobenzyl)-N,3-dimethyl-5-((2-(pyrrolidin-1-yl)ethyl)amino)pyrazine-2-carboxamide] | 39.8 | 9770 | 12.6 |
| Cc1cccc(Cc2nnc(C)nc2NCCN2CCC2)c1 [Example 148, N-(2-(azetidin-1-yl)ethyl)-3-methyl-6-(3-methylbenzyl)-1,2,4-triazin-5-amine] | 42.7 | 15100 | 10 |
| Cc1nc(NCCN2CCCC2)c(C(C)c2ccc(F)cc2)nc1C(=O)N[C@H]1C[C@@H](F)C1 (stereo partly drawn) [Example 64, N-(cis-3-fluorocyclobutyl)-6-(1-(4-fluorophenyl)ethyl)-3-methyl-5-((2-(pyrrolidin-1-yl)ethyl)amino)pyrazine-2-carboxamide] | 33.9 | 1260 | 13.8 |
| Cc1cnc(-c2nc(C(C)c3ccc(F)cc3)c(NCCN3CCCC3)nc2C)o1 (stereo not drawn) [Example 129, 3-(1-(4-fluorophenyl)ethyl)-6-methyl-5-(5-methyloxazol-2-yl)-N-(2-(pyrrolidin-1-yl)ethyl)pyrazin-2-amine] | 35.5 | 2290 | 10 |
| C[C@H](c1ccc(F)cc1)c1nccnc1NCCN1CCCC1 (single isomer, unassigned) [Example 121] | 39.8 | 1380 | 4.37 |
| CO[C@H]1CCN(C(=O)c2cnc(NCCN3CCCC3)c([C@H](C)c3ccc(F)cc3)n2)C1 [Example 10, (6-((R)-1-(4-fluorophenyl)ethyl)-5-((2-(pyrrolidin-1-yl)ethyl)amino)pyrazin-2-yl)((S)-3-methoxypyrrolidin-1-yl)methanone] | 380 | 3160 | 26.9 |
